Test results taken from PubChem BioAssay AID1259407 (Chemical Carcinogenesis Research Information System (CCRIS), 2018).
Activity calls are given as the source filed them. The rule behind the calls is not given here.

Tested on: CCRIS mutagenicity, Ames/micronucleus/aberration tests
Assay: CCRIS mutagenicity studies
[1] = Test System: AMES SALMONELLA TYPHIMURIUM, Strain/Indicator: TA98, Metabolic Activation: NONE, Method: STANDARD PLATE
[2] = Test System: AMES SALMONELLA TYPHIMURIUM, Strain/Indicator: TA100, Metabolic Activation: NONE, Method: STANDARD PLATE
[3] = Test System: AMES SALMONELLA TYPHIMURIUM, Strain/Indicator: TA102, Metabolic Activation: NONE, Method: STANDARD PLATE
[4] = Test System: AMES SALMONELLA TYPHIMURIUM, Strain/Indicator: TA98, Metabolic Activation: NONE, Method: PREINCUBATION
[5] = Test System: AMES SALMONELLA TYPHIMURIUM, Strain/Indicator: TA100, Metabolic Activation: NONE, Method: PREINCUBATION

`CC1(C)CC(N)CC(C)(C)N1[O]` was tested, and the mutagenic call [1] was “active; positive”, the mutagenic call (Test System: AMES SALMONELLA TYPHIMURIUM, Strain/Indicator: TA98, Metabolic Activation: RAT LIVER S-9, PCB, Method: STANDARD PLATE) was “inactive; negative” and the mutagenic call [2] was “active; positive”. For the same molecule, the mutagenic call (Test System: AMES SALMONELLA TYPHIMURIUM, Strain/Indicator: TA100, Metabolic Activation: RAT LIVER S-9, PCB, Method: STANDARD PLATE) was “inactive; negative” and the mutagenic call [3] was “inactive; negative”.
In the case of `Cn1cnc([N+](=O)[O-])c1Sc1ncnc2nc[nH]c12`, the mutagenic call (Test System: AMES SALMONELLA TYPHIMURIUM, Strain/Indicator: TA98, Metabolic Activation: HAMSTER, LIVER, S-9, AROCLOR 1254 (30%), Method: PREINCUBATION) is reported as “inactive; negative”, the mutagenic call [4] is reported as “inactive; negative” and the mutagenic call (Test System: AMES SALMONELLA TYPHIMURIUM, Strain/Indicator: TA98, Metabolic Activation: RAT, LIVER, S-9, AROCLOR 1254 (30%), Method: PREINCUBATION) is reported as “inactive; negative”. The mutagenic call (Test System: AMES SALMONELLA TYPHIMURIUM, Strain/Indicator: TA100, Metabolic Activation: HAMSTER, LIVER, S-9, AROCLOR 1254 (30%), Method: PREINCUBATION) was “active; positive”, the mutagenic call [5] was “active; positive” and the mutagenic call (Test System: AMES SALMONELLA TYPHIMURIUM, Strain/Indicator: TA100, Metabolic Activation: RAT, LIVER, S-9, AROCLOR 1254 (30%), Method: PREINCUBATION) was “active; positive”.
With `Nc1ccc(I)cc1Cl` the mutagenic call (End Point: In vitro chromosomal aberrations, Test System: Chinese hamster lung (CHL/IU) cells, Metabolic Activation: Rat, Liver, S9, Phenobarbital and 5,6-benzoflavone) was “active; positive (structural changes). weak response”, the mutagenic call (Test System: Ames Salmonella typhimurium, Strain/Indicator: TA98, Metabolic Activation: None, Method: Preincubation) was “inactive; negative” and the mutagenic call (Test System: Ames Salmonella typhimurium, Strain/Indicator: TA98, Metabolic Activation: Rat, Liver, S9, Sodium phenobarbital and 5,6-benzoflavone (10%), Method: Preincubation) was “inactive; negative”. For the same molecule, the mutagenic call (Test System: Ames Salmonella typhimurium, Strain/Indicator: TA100, Metabolic Activation: None, Method: Preincubation) was “inactive; negative”, the mutagenic call (Test System: Ames Salmonella typhimurium, Strain/Indicator: TA1535, Metabolic Activation: None, Method: Preincubation) was “inactive; negative” and the mutagenic call (Test System: Ames Salmonella typhimurium, Strain/Indicator: TA1535, Metabolic Activation: Rat, Liver, S9, Sodium phenobarbital and 5,6-benzoflavone (10%), Method: Preincubation) was “inactive; negative”. The mutagenic call (Test System: Ames Salmonella typhimurium, Strain/Indicator: TA1537, Metabolic Activation: None, Method: Preincubation) was “inactive; negative”, the mutagenic call (Test System: Ames Salmonella typhimurium, Strain/Indicator: TA1537, Metabolic Activation: Rat, Liver, S9, Sodium phenobarbital and 5,6-benzoflavone (10%), Method: Preincubation) was “inactive; negative” and the mutagenic call (Test System: E. coli, Strain/Indicator: WP2uvrA/pKM101, Metabolic Activation: None, Method: Preincubation) was “inactive; negative”. The mutagenic call (Test System: E. coli, Strain/Indicator: WP2uvrA/pKM101, Metabolic Activation: Rat, Liver, S9, Sodium phenobarbital and 5,6-benzoflavone (10%), Method: Preincubation) was “inactive; negative”.
`COc1cc(O)c2c(=O)c(O)c(-c3ccc(O)c(O)c3)oc2c1` was tested, and the mutagenic call (Test System: AMES SALMONELLA TYPHIMURIUM, Strain/Indicator: TA97, Metabolic Activation: NONE, Method: STANDARD PLATE) was “inactive; negative”, the mutagenic call (Test System: AMES SALMONELLA TYPHIMURIUM, Strain/Indicator: TA97, Metabolic Activation: RAT, LIVER, S-9, AROCLOR 1254, Method: STANDARD PLATE) was “active; positive” and the mutagenic call [1] was “inactive; negative”. For the same molecule, the mutagenic call (Test System: AMES SALMONELLA TYPHIMURIUM, Strain/Indicator: TA98, Metabolic Activation: RAT, LIVER, S-9, AROCLOR 1254, Method: STANDARD PLATE) was “active; positive”, the mutagenic call [2] was “inactive; negative” and the mutagenic call (Test System: AMES SALMONELLA TYPHIMURIUM, Strain/Indicator: TA100, Metabolic Activation: RAT, LIVER, S-9, AROCLOR 1254, Method: STANDARD PLATE) was “inactive; negative”. The mutagenic call [3] was “inactive; negative”, the mutagenic call (Test System: AMES SALMONELLA TYPHIMURIUM, Strain/Indicator: TA102, Metabolic Activation: RAT, LIVER, S-9, AROCLOR 1254, Method: STANDARD PLATE) was “inactive; negative” and the mutagenic call (Test System: AMES SALMONELLA TYPHIMURIUM, Strain/Indicator: TA1535, Metabolic Activation: NONE, Method: STANDARD PLATE) was “inactive; negative”. The mutagenic call (Test System: AMES SALMONELLA TYPHIMURIUM, Strain/Indicator: TA1535, Metabolic Activation: RAT, LIVER, S-9, AROCLOR 1254, Method: STANDARD PLATE) was “inactive; negative”, the mutagenic call (Test System: AMES SALMONELLA TYPHIMURIUM, Strain/Indicator: TA1538, Metabolic Activation: NONE, Method: STANDARD PLATE) was “inactive; negative” and the mutagenic call (Test System: AMES SALMONELLA TYPHIMURIUM, Strain/Indicator: TA1538, Metabolic Activation: RAT, LIVER, S-9, AROCLOR 1254, Method: STANDARD PLATE) was “inactive; negative”.
In the case of `Brc1cc(-c2cc(Br)c(Br)c(Br)c2)cc(Br)c1Br`, the mutagenic call (Test System: CHINESE HAMSTER V-79, Strain/Indicator: V-79 (HGPRT)/6-THIOGUANINE, Metabolic Activation: NONE) is reported as “inactive; negative”.
With `CC(=O)Nc1ccc(Oc2ccc([N+](=O)[O-])cc2)cc1` the mutagenic call (Test System: AMES SALMONELLA TYPHIMURIUM, Strain/Indicator: TA98(1,8-DNP6), Metabolic Activation: NONE, Method: PREINCUBATION) was “inactive; negative”, the mutagenic call (Test System: AMES SALMONELLA TYPHIMURIUM, Strain/Indicator: TA98(1,8-DNP6), Metabolic Activation: RAT, LIVER, S-9, AROCLOR 1254, Method: PREINCUBATION) was “inactive; negative” and the mutagenic call (Test System: AMES SALMONELLA TYPHIMURIUM, Strain/Indicator: TA98(NR), Metabolic Activation: NONE, Method: PREINCUBATION) was “inactive; negative”. The mutagenic call (Test System: AMES SALMONELLA TYPHIMURIUM, Strain/Indicator: TA98(NR), Metabolic Activation: RAT, LIVER, S-9, AROCLOR 1254, Method: PREINCUBATION) was “inactive; negative”, the mutagenic call [4] was “active; positive” and the mutagenic call (Test System: AMES SALMONELLA TYPHIMURIUM, Strain/Indicator: TA98, Metabolic Activation: RAT, LIVER, S-9, AROCLOR 1254, Method: PREINCUBATION) was “active; positive”. For the same molecule, the mutagenic call (Test System: AMES SALMONELLA TYPHIMURIUM, Strain/Indicator: TA100(NR), Metabolic Activation: NONE, Method: PREINCUBATION) was “inactive; negative”, the mutagenic call (Test System: AMES SALMONELLA TYPHIMURIUM, Strain/Indicator: TA100(NR), Metabolic Activation: RAT, LIVER, S-9, AROCLOR 1254, Method: PREINCUBATION) was “active; positive” and the mutagenic call [5] was “active; positive”. For the same molecule, the mutagenic call (Test System: AMES SALMONELLA TYPHIMURIUM, Strain/Indicator: TA100, Metabolic Activation: RAT, LIVER, S-9, AROCLOR 1254, Method: PREINCUBATION) was “active; positive”.
For `O=C(CCCl)N=c1sn(C(=O)CCCl)c2ccccc12`, the mutagenic call (Test System: AMES SALMONELLA TYPHIMURIUM, Strain/Indicator: TA100, Metabolic Activation: S-9, Method: STANDARD PLATE) was “inactive; negative”.
`CSCCCCN=C=S` was tested, and the mutagenic call (End Point: IN VITRO MICRONUCLEUS, Test System: HUMAN T-LYMPHOCYTES, Metabolic Activation: NONE) was “inactive; negative”.
In the case of `CC(C)=CCCC(C)CCO` (centres undefined), the mutagenic call [1] is reported as “inactive; negative”, the mutagenic call (Test System: AMES SALMONELLA TYPHIMURIUM, Strain/Indicator: TA98, Metabolic Activation: S-9, Method: STANDARD PLATE) is reported as “inactive; negative” and the mutagenic call [2] is reported as “inactive; negative”.
